Here are results for four compounds from patent publication US7973036B2, “2-methyl-5-imino-benzo[D][1 ,3]oxazin[5-B]pyrazole compound, preparation and use thereof” (Qingdao Huanghai Pharmaceutical Co., Ltd, priority 2008, dated 2011).

Series [1] is described as follows: Anti-DPPH free radical test (spectrophotometry at 517 nm). The series is classed as biochemical. As to conditions: for DPPH free radical scavenging ability E, one value per sample (mean of the five concentrations) / DPPH free radical scavenging ability V / DPPH free radical scavenging ability, comparison between samples / DPPH free radical scavenging ability E / DPPH free radical scavenged by one molecular of compound: 30 min. From the text: Anti-DPPH Free Radical Test
2,2-diphenyl-1-picrylhydrazyl (DPPH) free radical spectrophotometry is a simple method for screening antioxidants, the principle of which is using the characteristic absorption peak of DPPH solution at 517 nm. When free radical scavengers existed, single electron pairing between free radical scavenger and DPPH allowed the absorption of DPPH disappeared, and its decoloring degree and accepted electron number present as quantitative relation, and the antioxidant activity of samples can be evaluated through the amount of cleared DPPH, so the spectrophotometry can be used for quantitative analysis.
DPPH was accurately weighed and placed in a volumetric flask, and diluted to 100 ml with 95% ethanol. The absorbance (A) of DPPH was measured at 517 nm.
DPPH standard curve was shown in FIG. 1, the linear equation of which was as follows: y=0.219x−0.0285; r=0.9994.
DPPH was accurately weighed and placed in a 100 ml volumetric flask, and diluted to 100 ml with 95% ethanol to produce the DPPH solution.
Preparation of Test Drug Solution: the Test Drug was Accurately Weighed and Placed in a 100 ml volumetric flask, dissolved with 20 ml of 95% ethanol, adjusted to pH 7.5 and diluted to 100 ml with 95% ethanol.
5.0 ml of DPPH solution and 2.0 ml test drug solution were taken and placed in a 10 ml volumetric flask, fully shaken at room temperature for a certain time followed by determination of absorption value (A) at 517 nm.
Formula for calculating DPPH free radical scavenging ability of test drug, E (mgDPPH/mg):
Formula for calculating DPPH free radical scavenging ability of test drug, V (mmolDPPH/mmol): […]

The subject of series [2] is cerebral ischemia reperfusion model of middle cerebral artery occlusion (MCAO). The series is described as follows: Cerebral ischemia reperfusion model of middle cerebral artery occlusion (MCAO), suture method. Format: in vivo, SD rats. Conditions: Nimodipine 0.4 mg/kg, X ± SD. How it is done: Cerebral ischemia reperfusion model of middle cerebral artery occlusion (MCAO) was established in SD rats using the suture method of internal carotid artery. Test rats were administrated once 0.5 hours after ischemia reperfusion, then once every 2 hours, for totally three times. Neurological defect symptoms were observed 48 hours after cerebral ischemia.

Where [3] appears, read: test drug C 0.152 (Edaravone), 0.153 (Compound 1, 2), 0.159 (Compound 3) mg/100 ml.
[4] abbreviates: test drug C 0.304 (Edaravone), 0.305 (Compound 1, 2), 0.318 (Compound 3) mg/100 ml.
The mark [5] stands for this setting: test drug C 0.608 (Edaravone), 0.610 (Compound 1, 2), 0.635 (Compound 3) mg/100 ml.
Where [6] appears, read: test drug C 1.215 (Edaravone), 1.220 (Compound 1, 2), 1.270 (Compound 3) mg/100 ml.
Setting [7] is: test drug C 2.430 (Edaravone), 2.440 (Compound 1, 2), 2.540 (Compound 3) mg/100 ml.

“Also recorded” adds a separate entry of the source.

Consider “2-methyl-benzo[d][1,3]oxazin[5-b]pyrazole-5-one [Compound 1]”, for which, in series [1] (30-150 min), the “DPPH free radical scavenging ability with the reaction time” value is reported as “gradually increased”. Further, the “Hydrolysis in the reaction liquid with the reaction time” value in series [1] (95% ethanol, pH 7.5, room temperature, 30-150 min) was “gradually hydrolyzed into Compound 3”. Further, the “DPPH free radical scavenging ability E, one value per sample (mean of the five concentrations)” value in series [1] is recorded as 1.687 mgDPPH/mg. For the same compound, the “DPPH free radical scavenging ability V” value in series [1] amounted to 0.856 mmolDPPH/mmol. Also, in series [1], the “DPPH free radical scavenging ability, comparison between samples” value is recorded as “one-eighth of Compound 3”. For the same compound, the “DPPH free radical scavenging ability E” value in series [1] (setting [3]) was found to be 1.650 mgDPPH/mg; in series [1] (setting [4]) it was 1.481 mgDPPH/mg; in series [1] (setting [5]), 1.252 mgDPPH/mg; in series [1] (setting [6]) it was 2.262 mgDPPH/mg; in series [1] (setting [7]) it was 1.792 mgDPPH/mg. Further, in series [1] (at 150 min), the “DPPH free radical scavenging ability, comparison with Compound 3” value is reported as “equivalent with Compound 3”.
With `Cc1cc(=O)n(-c2ccccc2C#N)[nH]1` [Compound 3, 1-(2-cyanophenyl)-3-methylpyrazol-5-one], the “DPPH free radical scavenged by one molecular of compound” value in series [1] is 1.942 molecular of DPPH free radical. Moreover, the “DPPH free radical scavenging ability E, one value per sample (mean of the five concentrations)” value in series [1] was determined as 3.510 mgDPPH/mg. In series [1], the “DPPH free radical scavenging ability V” value is given as 1.942 mmolDPPH/mmol. Moreover, the “DPPH free radical scavenging ability, comparison between samples” value in series [1] is reported as “the largest; also recorded: slightly stronger than Edaravone”. Also, the “DPPH free radical scavenging ability E” value in series [1] (setting [3]) is 3.067 mgDPPH/mg; in series [1] (setting [4]) it was 3.215 mgDPPH/mg; in series [1] (setting [5]), 2.770 mgDPPH/mg; in series [1] (setting [6]) it was 4.032 mgDPPH/mg; in series [1] (setting [7]), 4.464 mgDPPH/mg.
With `CC1=NN(c2ccccc2)C(=O)C1` [Edaravone, edaravone, reference compound], in series [1], the “DPPH free radical scavenged by one molecular of compound” value is listed as 1.657 molecular of DPPH free radical. Besides, the “DPPH free radical scavenging ability E, one value per sample (mean of the five concentrations)” value in series [1] came out at 3.752 mgDPPH/mg. Moreover, the “DPPH free radical scavenging ability V” value in series [1] is 1.657 mmolDPPH/mmol. In addition, the “DPPH free radical scavenging ability E” value was found to be 3.222 mgDPPH/mg in series [1] (setting [3]); 3.195 mgDPPH/mg in series [1] (setting [4]); 3.322 mgDPPH/mg in series [1] (setting [5]); 4.785 mgDPPH/mg in series [1] (setting [6]); 4.237 mgDPPH/mg in series [1] (setting [7]).
Take `COCCOC(=O)C1=C(C)NC(C)=C(C(=O)OC(C)C)C1c1cccc([N+](=O)[O-])c1` (centres unmarked) [Nimodipine, nimodipine, reference compound]: in series [2] (n=7), the “Variation value of water content in brain (%)” value was 1.6 ± 0.59 %, the “brain tissue MDA content” value was determined as 7.6 ± 1.28 nmol/mgprot and the “brain tissue SOD activity” value stood at 114.8 ± 16.4 U/mgprot. In addition, the “Scores of neurological defect symptoms” value in series [2] (Table 4 series, three administrations, 48 hours after cerebral ischemia, n=10) is 1.2 ± 0.41. The “Cerebral infarction area (%)” value in series [2] (Table 5, three administrations, n=10) is recorded as 6.7 ± 6.30^#& %. For the same compound, in series [2] (Table 6, brain injury, three administrations, n=10), the “Cerebral infarction area (%) (table title: brain injury)” value is 12.8 ± 12.09^#& %. For the same compound, the “Scores of neurological defect symptoms” value in series [2] (Table 7 series, n=7) is recorded as 1.3 ± 0.86.
